{"source": "patent US20250268876A1", "about": "“TREATMENT OF HIDRADENITIS SUPPURATIVA WITH ORISMILAST” (UNION THERAPEUTICS A/S, priority 2021, published 2025)", "key": {"[1]": {"target": "human recombinant PDE4D protein (Homo sapiens, UniProt Q08499)", "sequence (Q08499 whole entry)": "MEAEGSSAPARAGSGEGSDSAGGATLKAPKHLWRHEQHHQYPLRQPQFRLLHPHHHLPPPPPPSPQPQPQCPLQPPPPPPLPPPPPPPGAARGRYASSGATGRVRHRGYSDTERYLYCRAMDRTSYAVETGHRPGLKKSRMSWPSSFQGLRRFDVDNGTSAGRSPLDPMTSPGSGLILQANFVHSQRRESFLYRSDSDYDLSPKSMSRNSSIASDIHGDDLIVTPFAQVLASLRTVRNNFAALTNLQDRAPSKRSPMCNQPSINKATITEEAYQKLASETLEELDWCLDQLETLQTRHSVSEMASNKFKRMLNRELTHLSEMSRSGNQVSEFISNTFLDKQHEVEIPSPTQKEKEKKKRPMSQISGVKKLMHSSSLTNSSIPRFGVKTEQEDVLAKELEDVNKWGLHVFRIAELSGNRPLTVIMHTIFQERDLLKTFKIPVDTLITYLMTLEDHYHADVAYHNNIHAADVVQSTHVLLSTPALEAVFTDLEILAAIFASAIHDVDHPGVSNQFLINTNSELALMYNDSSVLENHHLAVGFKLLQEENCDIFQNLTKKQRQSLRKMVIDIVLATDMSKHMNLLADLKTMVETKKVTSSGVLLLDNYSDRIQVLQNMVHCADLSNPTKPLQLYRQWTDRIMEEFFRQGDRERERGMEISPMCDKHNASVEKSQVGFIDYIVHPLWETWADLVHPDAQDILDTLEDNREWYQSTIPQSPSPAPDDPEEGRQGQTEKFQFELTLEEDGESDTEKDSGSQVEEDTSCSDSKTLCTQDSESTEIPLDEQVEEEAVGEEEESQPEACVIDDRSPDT", "assay": "PDE4D scintillation proximity assay (SPA)", "assay_type": "biochemical", "settings": "purified human recombinant PDE4D", "description": "PDE4 enzymatic activity was measured in a scintillation proximity assay using purified human recombinant PDE4D protein."}, "PDE4C2": {"target": "PDE4C2 (Homo sapiens, UniProt Q08493)", "sequence (Q08493 107-712)": "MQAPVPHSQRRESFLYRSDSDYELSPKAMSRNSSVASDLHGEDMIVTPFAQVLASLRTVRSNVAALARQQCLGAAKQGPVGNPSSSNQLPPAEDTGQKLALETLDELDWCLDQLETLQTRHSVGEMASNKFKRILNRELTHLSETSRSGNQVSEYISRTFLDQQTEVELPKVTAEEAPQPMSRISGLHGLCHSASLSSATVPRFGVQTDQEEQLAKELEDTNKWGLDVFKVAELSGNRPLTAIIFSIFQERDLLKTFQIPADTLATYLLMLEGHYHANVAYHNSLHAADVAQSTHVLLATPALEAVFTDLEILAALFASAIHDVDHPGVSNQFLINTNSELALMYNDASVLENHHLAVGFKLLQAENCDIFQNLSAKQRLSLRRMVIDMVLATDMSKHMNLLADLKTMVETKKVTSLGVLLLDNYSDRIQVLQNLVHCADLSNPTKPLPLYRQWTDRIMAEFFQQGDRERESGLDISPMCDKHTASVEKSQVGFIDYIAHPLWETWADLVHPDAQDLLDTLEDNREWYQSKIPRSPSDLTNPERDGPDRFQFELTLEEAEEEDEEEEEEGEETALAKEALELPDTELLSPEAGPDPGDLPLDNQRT", "assay": "IMAP fluorescence polarisation PDE4 subtype assay", "assay_type": "biochemical"}, "[2]": {"system": "TNF-α release from human peripheral blood mononuclear cells", "assay": "TNF-α release, serum-free, hPBMC, LPS", "assay_type": "cell-based", "settings": "PBMC, 18 hours", "description": "TNF-α, Serumfree, hPBMC, LPS\nCultures of human PBMC isolated from buffy coats were stimulated with lipopolysaccharide to activate the monocytes and to release TNF-α. PBMC were isolated from fresh buffy coats and frozen for later use. On the assay day, cells were thawed, washed in serum free medium (RPMI1640 with 25 mM HEPES, 1% pen/strep, […] L glutamine and 0.5% human serum albumin) and living cells were counted. Test compounds were diluted in DMSO and further diluted in serum-free medium and pipetted into wells of 384 well tissue culture plates. LPS was added to the cells which shortly thereafter were added to the wells with titrated test compounds and incubated for 18 hours at 37° C. The next day, the level of TNF-α in the culture supernatant was quantitated by homogenous time-resolved fluorescence (HTRF) where FRET was measured at 665 nm and normalized to the fluorescence of europium cryptate at 620 nm. The effect (inhibition of TNF-α release) of a test compound was calculated using equation 1: […]\nFluorescence intensities, measured at 665 nm and 620 nm, were used to calculate the 665/620 ratio as an estimate of the level of secreted TNF-α. Sx denotes the 665/620 ratio associated with the test compound. So and Sc denote the 665/620 ratios associated with 0.1% DMSO and 1E-05 M compound (II), respectively.\nThis model describes a sigmoidal curve with an adjustable baseline, a. […]"}, "[3]": {"system": "TNF-α secretion from human whole blood", "assay": "Whole blood TNF-α secretion assay (LPS or SEB)", "assay_type": "cell-based", "settings": "for times more potent than Roflumilast / times more potent than apremilast: mean EC50 values; for Emax: read-out: Emax; for pEC50: read-out: EC50"}, "IFN-γ": {"system": "IFN-γ", "assay": "Human whole blood cytokine secretion assay (TruCulture)", "assay_type": "cell-based", "settings": "read-out: % inhibition at 20 nM, IFN-γ, mean of 3 experiments", "description": "(§1) TruCulture blood collection and incubation tubes were tested with fresh human whole blood with or without addition of 20 nM of the compound of formula (I). The best results were obtained using heparin-stabilised blood and anti-CD3/CD28 test tubes."}, "IL-13": {"system": "IL-13", "assay": "Human whole blood cytokine secretion assay (TruCulture)", "assay_type": "cell-based", "settings": "20 nM", "description": "as §1"}, "IL-1": {"system": "IL-1", "assay": "Human whole blood cytokine secretion assay (TruCulture)", "assay_type": "cell-based", "settings": "read-out: % inhibition at 20 nM, IL-1, mean of 3 experiments", "description": "as §1"}, "IL-2": {"system": "IL-2", "assay": "Human whole blood cytokine secretion assay (TruCulture)", "assay_type": "cell-based", "settings": "read-out: % inhibition at 20 nM, IL-2, mean of 3 experiments", "description": "as §1"}, "IL-4": {"system": "IL-4", "assay": "Human whole blood cytokine secretion assay (TruCulture)", "assay_type": "cell-based", "settings": "read-out: % inhibition at 20 nM, IL-4, mean of 3 experiments", "description": "as §1"}, "IL-8": {"system": "IL-8", "assay": "Human whole blood cytokine secretion assay (TruCulture)", "assay_type": "cell-based", "settings": "20 nM", "description": "as §1"}, "TNF-α": {"system": "TNF-α", "assay": "Human whole blood cytokine secretion assay (TruCulture)", "assay_type": "cell-based", "settings": "read-out: % inhibition at 20 nM, TNF-α, mean of 3 experiments", "description": "as §1"}, "in vivo": {"assay": "in vivo", "settings": "ferret, po"}, "PDE4A1": {"target": "PDE4A1 (Homo sapiens, UniProt P27815)", "sequence (P27815 1-647 isoform P27815-4)": "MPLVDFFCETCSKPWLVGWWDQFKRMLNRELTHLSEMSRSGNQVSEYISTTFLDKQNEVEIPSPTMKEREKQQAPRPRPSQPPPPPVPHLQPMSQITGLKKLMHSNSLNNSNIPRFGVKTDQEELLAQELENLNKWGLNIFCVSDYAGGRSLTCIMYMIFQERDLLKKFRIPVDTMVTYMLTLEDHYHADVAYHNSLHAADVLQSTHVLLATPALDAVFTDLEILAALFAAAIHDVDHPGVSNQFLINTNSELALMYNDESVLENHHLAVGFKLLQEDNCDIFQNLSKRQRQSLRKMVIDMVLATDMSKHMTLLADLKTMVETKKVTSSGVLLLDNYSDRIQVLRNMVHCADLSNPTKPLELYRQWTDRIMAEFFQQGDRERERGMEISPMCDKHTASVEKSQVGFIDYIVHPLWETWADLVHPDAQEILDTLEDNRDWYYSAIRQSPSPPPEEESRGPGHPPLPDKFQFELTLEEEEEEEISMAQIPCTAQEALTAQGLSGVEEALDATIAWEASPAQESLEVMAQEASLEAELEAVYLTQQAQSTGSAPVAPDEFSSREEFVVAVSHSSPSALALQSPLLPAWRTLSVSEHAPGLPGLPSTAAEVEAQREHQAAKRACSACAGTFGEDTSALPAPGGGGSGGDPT", "assay": "biochemical"}, "PDE4A10": {"target": "PDE4A10 (Homo sapiens, UniProt P27815)", "sequence (P27815 1-825 isoform P27815-6)": "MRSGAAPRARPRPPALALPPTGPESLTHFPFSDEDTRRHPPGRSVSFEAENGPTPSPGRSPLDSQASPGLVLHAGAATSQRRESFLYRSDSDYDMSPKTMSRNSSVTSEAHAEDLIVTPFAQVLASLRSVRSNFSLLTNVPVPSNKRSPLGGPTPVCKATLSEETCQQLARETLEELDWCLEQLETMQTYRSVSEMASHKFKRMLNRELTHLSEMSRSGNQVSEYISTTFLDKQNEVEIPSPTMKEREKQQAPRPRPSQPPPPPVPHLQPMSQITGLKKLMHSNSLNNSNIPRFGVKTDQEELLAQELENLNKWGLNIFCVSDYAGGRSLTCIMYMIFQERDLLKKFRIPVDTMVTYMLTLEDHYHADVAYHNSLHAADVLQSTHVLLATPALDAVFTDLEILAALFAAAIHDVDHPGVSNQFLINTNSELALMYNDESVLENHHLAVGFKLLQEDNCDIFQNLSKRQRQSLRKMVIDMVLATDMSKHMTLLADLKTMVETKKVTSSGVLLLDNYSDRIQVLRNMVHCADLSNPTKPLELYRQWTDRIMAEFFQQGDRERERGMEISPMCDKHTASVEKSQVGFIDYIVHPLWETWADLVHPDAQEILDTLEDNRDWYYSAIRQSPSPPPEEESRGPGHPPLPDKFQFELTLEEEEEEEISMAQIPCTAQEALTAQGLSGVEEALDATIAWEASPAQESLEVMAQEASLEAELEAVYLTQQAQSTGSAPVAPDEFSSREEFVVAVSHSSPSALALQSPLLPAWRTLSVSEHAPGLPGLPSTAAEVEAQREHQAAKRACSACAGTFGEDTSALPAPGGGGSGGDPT", "assay": "biochemical"}, "[4]": {"settings": "Homo sapiens, 24 h, LPS 1 μg/mL, 24 hours, donor 2"}, "[5]": {"settings": "Homo sapiens, 24 h, SEB 1 μg/mL, 24 hours, donor 1"}, "[6]": {"settings": "Homo sapiens, 24 h, SEB 1 μg/mL, 24 hours, donor 2"}, "[7]": {"settings": "Homo sapiens, 48 h, LPS 1 μg/mL, 48 hours, donor 1"}, "[8]": {"settings": "Homo sapiens, 48 h, LPS 1 μg/mL, 48 hours, donor 2"}, "[9]": {"settings": "Homo sapiens, 48 h, SEB 1 μg/mL, 48 hours, donor 1"}, "[10]": {"settings": "Homo sapiens, 48 h, SEB 1 μg/mL, 48 hours, donor 2"}}, "note": "pEC50, pIC50: −log10 of the molar value. Where “and” joins values, the source holds several entries; their conditions need not be identical. Equal entries are not always repeated. Where two headings read alike, the source gives them in different places.", "data": [{"smiles": "O=C(Cc1c(Cl)c[n+]([O-])cc1Cl)c1ccc(OC(F)F)c2c1OC1(CCS(=O)(=O)CC1)O2", "note": "[Compound (I), 2-(3,5-Dichloro-1-oxido-pyridine-4-yl)-1-(7-difluoro-methoxy-2′,3′,5′,6′-tetrahydro-spiro[1,3-benzodioxole-2,4′-(4H)-thiopyran-1′,1′-dioxide]-4-yl)ethanone]", "values": [{"measurement": "pEC50", "setting": "[1]", "result": 7.83}, {"measurement": "Inhibition (%)", "setting": "PDE4C2; compound 10^−7 M (100 nM)", "result": "not significantly inhibited"}, {"measurement": "inhibition at 0.0001 µM", "setting": "PDE4C2; compound 10^−10 M", "result": 9, "unit": "%"}, {"measurement": "pEC50", "setting": "[2]", "result": 7.94}, {"measurement": "Emax", "setting": "[2]", "result": 102, "unit": "%"}, {"measurement": "times more potent than Roflumilast", "setting": "[3]; (M)", "result": 1.7, "unit": "times"}, {"measurement": "times more potent than Roflumilast", "setting": "[3]; (ng/mL)", "result": 1.4, "unit": "times"}, {"measurement": "Emax", "setting": "[3]; Homo sapiens, 24 h, LPS 1 μg/mL, 24 hours, donor 1, Emax defined as TNF-α level in un-stimulated wells", "result": 76, "unit": "%"}, {"measurement": "pEC50", "setting": "[3]; Homo sapiens, 24 h, LPS 1 μg/mL, 24 hours, donor 1", "result": 8.27}, {"measurement": "pEC50", "setting": "[3]; [4]", "result": 7.74}, {"measurement": "Emax", "setting": "[3]; [4]", "result": 79, "unit": "%"}, {"measurement": "pEC50", "setting": "[3]; [5]", "result": 8.31}, {"measurement": "Emax", "setting": "[3]; [5]", "result": 97, "unit": "%"}, {"measurement": "pEC50", "setting": "[3]; [6]", "result": 7.60}, {"measurement": "Emax", "setting": "[3]; [6]", "result": 66, "unit": "%"}, {"measurement": "pEC50", "setting": "[3]; [7]", "result": 7.92}, {"measurement": "Emax", "setting": "[3]; [7]", "result": 71, "unit": "%"}, {"measurement": "pEC50", "setting": "[3]; [8]", "result": 7.70}, {"measurement": "Emax", "setting": "[3]; [8]", "result": 80, "unit": "%"}, {"measurement": "pEC50", "setting": "[3]; [9]", "result": 8.33}, {"measurement": "Emax", "setting": "[3]; [9]", "result": 98, "unit": "%"}, {"measurement": "pEC50", "setting": "[3]; [10]", "result": 7.32}, {"measurement": "Emax", "setting": "[3]; [10]", "result": 83, "unit": "%"}, {"measurement": "EC50", "setting": "[3]; Homo sapiens, mean of 8 determinations (LPS and SEB, 24 and 48 hours, 2 donors), read-out: Geometric mean of EC50 values across different assay parameters", "result": "12.6 nM and 0.00643 µg/mL"}, {"measurement": "Potency compared with roflumilast-N-oxide (in words)", "setting": "[3]; LPS and SEB-induced TNF-α secretion", "result": "equipotent to—or slightly more potent than"}, {"measurement": "times more potent than apremilast", "setting": "[3]; based on molar concentrations", "result": 23, "unit": "times"}, {"measurement": "times more potent than apremilast", "setting": "[3]; based on ng/mL concentrations", "result": 21, "unit": "times"}, {"measurement": "inhibition at 0.02 µM", "setting": "IFN-γ", "result": 54, "unit": "%"}, {"measurement": "Inhibition of IL-13 secretion (in words)", "setting": "IL-13", "result": "not clearly inhibited"}, {"measurement": "inhibition at 0.02 µM", "setting": "IL-1", "result": 40, "unit": "%"}, {"measurement": "inhibition at 0.02 µM", "setting": "IL-2", "result": 50, "unit": "%"}, {"measurement": "inhibition at 0.02 µM", "setting": "IL-4", "result": 44, "unit": "%"}, {"measurement": "Inhibition of IL-8 secretion (in words)", "setting": "IL-8", "result": "not clearly inhibited"}, {"measurement": "inhibition at 0.02 µM", "setting": "TNF-α", "result": 60, "unit": "%"}, {"measurement": "NOAEL at 3 h", "setting": "in vivo", "result": 3, "unit": "mg/kg"}, {"measurement": "pIC50", "setting": "PDE4A1", "result": 7.80}, {"measurement": "pIC50", "setting": "PDE4A10", "result": 7.28}]}]}
